Measurements reported in publication doi:10.1101/2020.08.04.236091v1 (biorxiv, 2020).
pEC50: −log10 of the molar value.

Target: T1, MdomOR30a (co-expressed with MdomOrco) (Musca domestica, UniProt A0A1I8MP03)
T1 sequence (A0A1I8MP03 1-373): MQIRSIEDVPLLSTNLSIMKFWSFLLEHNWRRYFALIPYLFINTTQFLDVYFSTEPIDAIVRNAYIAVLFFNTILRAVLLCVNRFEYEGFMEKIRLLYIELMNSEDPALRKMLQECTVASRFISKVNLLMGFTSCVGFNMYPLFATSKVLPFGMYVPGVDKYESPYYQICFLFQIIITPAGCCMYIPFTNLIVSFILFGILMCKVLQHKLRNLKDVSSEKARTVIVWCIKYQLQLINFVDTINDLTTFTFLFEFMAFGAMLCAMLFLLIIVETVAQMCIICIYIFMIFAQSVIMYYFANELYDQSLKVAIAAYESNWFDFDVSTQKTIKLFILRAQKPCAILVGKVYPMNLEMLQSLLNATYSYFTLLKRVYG
T1 sequence (I0E1X6 1-478 partner): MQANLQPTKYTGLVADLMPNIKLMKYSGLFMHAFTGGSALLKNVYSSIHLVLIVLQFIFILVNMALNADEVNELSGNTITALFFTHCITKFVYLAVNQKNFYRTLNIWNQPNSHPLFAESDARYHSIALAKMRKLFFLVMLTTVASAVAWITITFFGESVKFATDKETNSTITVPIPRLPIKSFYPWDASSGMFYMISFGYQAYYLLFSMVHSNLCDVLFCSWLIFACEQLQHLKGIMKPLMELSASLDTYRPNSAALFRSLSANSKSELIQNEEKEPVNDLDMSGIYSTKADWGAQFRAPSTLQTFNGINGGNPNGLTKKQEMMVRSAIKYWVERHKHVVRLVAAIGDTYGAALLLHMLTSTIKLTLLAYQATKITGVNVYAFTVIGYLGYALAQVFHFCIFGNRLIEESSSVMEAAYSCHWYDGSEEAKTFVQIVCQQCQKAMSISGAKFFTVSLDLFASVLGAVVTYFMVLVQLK
Test: two-electrode voltage clamp, Xenopus oocytes, odorant-induced currents
Assay type: cell-based

pEC50	Compound
5.15	Cc1[nH]c2ccccc2c1C [2,3-dimethylindole]
6.48	Cc1c[nH]c2ccccc12 [3-methylindole]
5.28	c1ccc2[nH]ccc2c1 [indole]
